The experiment deals with T1, hERG1a (human ether-à-go-go-related gene type 1, Kv11.1) (Homo sapiens, UniProt Q12809).
T1 construct: gene KCNH2; EC50 on split hERG1a (residues 1–545 VSD module + residues 546–1,159 pore module, coexpressed)
Briefly: two-electrode voltage clamp of channels expressed in Xenopus oocytes (slowing of deactivation). The experiment is classed as cell-based.

This note sets out measurements from publication PMC9996038, “Binding of RPR260243 at the intracellular side of the hERG1 channel pore domain slows closure of the helix bundle crossing gate” (Frontiers in Molecular Biosciences, 2023).

T1 sequence (Q12809 546-1159): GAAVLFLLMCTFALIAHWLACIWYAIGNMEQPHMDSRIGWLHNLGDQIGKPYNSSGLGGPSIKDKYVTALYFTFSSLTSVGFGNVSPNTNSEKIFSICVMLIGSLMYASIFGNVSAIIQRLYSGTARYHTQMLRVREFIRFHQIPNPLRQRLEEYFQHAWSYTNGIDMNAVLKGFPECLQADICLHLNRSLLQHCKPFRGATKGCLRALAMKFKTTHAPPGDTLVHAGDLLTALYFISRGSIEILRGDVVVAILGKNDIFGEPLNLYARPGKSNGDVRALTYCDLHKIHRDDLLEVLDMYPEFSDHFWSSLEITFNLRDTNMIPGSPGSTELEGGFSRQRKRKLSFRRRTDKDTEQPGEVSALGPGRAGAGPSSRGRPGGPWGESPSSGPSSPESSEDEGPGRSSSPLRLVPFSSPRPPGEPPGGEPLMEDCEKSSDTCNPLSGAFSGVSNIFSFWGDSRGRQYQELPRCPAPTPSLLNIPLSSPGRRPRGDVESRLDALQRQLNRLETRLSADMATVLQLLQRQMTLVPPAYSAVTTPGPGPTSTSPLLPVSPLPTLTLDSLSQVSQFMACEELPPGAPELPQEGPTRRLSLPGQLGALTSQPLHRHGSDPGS
T1 sequence (Q12809 1-545 partner): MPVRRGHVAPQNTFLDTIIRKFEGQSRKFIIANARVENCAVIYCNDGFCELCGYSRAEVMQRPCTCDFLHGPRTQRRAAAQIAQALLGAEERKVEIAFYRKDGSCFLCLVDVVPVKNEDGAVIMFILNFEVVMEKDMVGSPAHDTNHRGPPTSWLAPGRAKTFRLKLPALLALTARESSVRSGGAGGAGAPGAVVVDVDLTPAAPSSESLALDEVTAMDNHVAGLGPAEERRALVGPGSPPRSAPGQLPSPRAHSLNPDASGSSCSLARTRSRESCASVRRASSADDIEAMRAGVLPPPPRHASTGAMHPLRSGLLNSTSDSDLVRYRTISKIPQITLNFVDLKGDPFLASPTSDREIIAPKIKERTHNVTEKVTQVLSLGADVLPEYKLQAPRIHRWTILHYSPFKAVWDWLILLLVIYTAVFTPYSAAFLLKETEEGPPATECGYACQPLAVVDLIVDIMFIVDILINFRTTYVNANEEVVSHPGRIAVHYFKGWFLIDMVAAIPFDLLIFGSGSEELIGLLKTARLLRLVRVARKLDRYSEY

The EC50 is the concentration needed to bring the measured effect to its halfway point. High values mean lower potency in that assay, low ones higher potency in that assay. On to `COc1ccc2nccc(C(=O)CC[C@@H]3CCN(CC#Cc4cc(F)cc(F)c4F)C[C@@H]3C(=O)O)c2c1` [RPR, (3R,4R)-4-[3-(6-methoxyquinolin-4-yl)-3-oxo-propyl]-1-[3-(2,3,5-trifluorophenyl)-prop-2-ynyl]-piperidine-3-carboxylic acid], for which a half-maximal response (EC50) required 7.9 ± 1 µM.
